Source: ChEMBL document CHEMBL2092589, “Liver-stage malaria parasites vulnerable to diverse chemical scaffolds” (Proc Natl Acad Sci U S A, 2012)
pIC50: −log10 of the molar value. Where a name gives a salt, the structure may show the parent alone.

Key:
[1] = (§1) HARVARD: Cytotoxicity in HepG2 cell line; details: human
Plasmodium berghei = assay: HARVARD: Inhibition of liver stage Plasmodium berghei infection in HepG2 cells; assay type: functional, organism-based, ANKA
Plasmodium falciparum [2] = assay: HARVARD: Inhibition of blood stage Plasmodium falciparum Dd2 infection; assay type: functional, organism-based
Plasmodium falciparum [3] = assay: HARVARD: Inhibition of blood stage Plasmodium falciparum 3D7 infection; assay type: functional, organism-based
HepG2 = assay: as §1; details: human, HepG2 cells
[4] = Plasmodium berghei, ANKA, HepG2

| pIC50 (Plasmodium berghei; [4]) | pIC50 (Plasmodium falciparum [2]; Plasmodium falciparum, Dd2) | Compound | pIC50 ([1]; HepG2 cells) | other results |
| --- | --- | --- | --- | --- |
| 6.12 | – | CC(=O)O[C@@H]1C[C@H]2C(C)(C)C(=O)C=C[C@]2(C)[C@H]2CC[C@@]3(C)[C@H](c4ccoc4)OC(=O)[C@H]4O[C@]43[C@@]21C [GEDUNIN] | < 4.00 | – |
| 7.92 | 5.93 | Nc1ccc2ncnc(NCCc3ccc(Oc4ccccc4)cc3)c2c1 | 4.23 | – |
| 5.86 | < 5.30 | CC(C)=CC[C@@H](O)C1=CC(=O)c2c(O)ccc(O)c2C1=O [SHIKONIN] | 4.55 | pIC50 (Plasmodium falciparum [3]; Plasmodium falciparum, 3D7): < 5.30 |
| 8.27 | – | CCCCCCCCCCOc1cc2c(O)c(C(=O)OCC)cnc2cc1OCC [DECOQUINATE] | < 4.00 | – |
| 9.52 | – | O=C1C(O)=C([C@H]2CC[C@H](c3ccc(Cl)cc3)CC2)C(=O)c2ccccc21 [ATOVAQUONE] | < 5.00 | – |
| 6.05 | 7.24 | COc1cccc2c1C(=O)c1c(O)c3c(c(O)c1C2=O)C[C@@](O)(C(=O)CO)C[C@@H]3O[C@H]1C[C@H](N)[C@H](O)[C@H](C)O1 [DOXORUBICIN] | 4.95 | – |
| 6.08 | 7.90 | CO[C@H](C(=O)[C@@H](O)[C@@H](C)O)[C@@H]1Cc2cc3cc(O[C@H]4C[C@@H](O[C@@H]5C[C@@H](O)[C@H](O)[C@@H](C)O5)[C@H](O)[C@@H](C)O4)c(C)c(O)c3c(O)c2C(=O)[C@H]1O[C@H]1C[C@@H](O[C@@H]2C[C@@H](O)[C@@H](O[C@@H]3C[C@](C)(O)[C@H](O)[C@@H](C)O3)[C@@H](C)O2)[C@H](O)[C@@H](C)O1 [PLICAMYCIN] | – | pIC50 (Plasmodium falciparum [3]; Plasmodium falciparum, 3D7): 7.82 |
| 5.11 | 4.71 | CCCOc1ccccc1-c1nc2nn[nH]c2c(=O)[nH]1 [ZAPRINAST] | < 5.00 | pIC50 (Plasmodium falciparum [3]; Plasmodium falciparum, 3D7): < 4.30 |
| 8.78 | – | C/C=C/C[C@@H](C)[C@@H](O)[C@H]1C(=O)N[C@@H](CC)C(=O)N(C)CC(=O)N(C)[C@@H](CC(C)C)C(=O)N[C@@H](C(C)C)C(=O)N(C)[C@@H](CC(C)C)C(=O)N[C@@H](C)C(=O)N[C@H](C)C(=O)N(C)[C@@H](CC(C)C)C(=O)N(C)[C@@H](CC(C)C)C(=O)N(C)[C@@H](C(C)C)C(=O)N1C [CYCLOSPORINE] | – | pIC50 (Plasmodium falciparum [3]; Plasmodium falciparum, 3D7): 6.86 |
| 5.77 | 6.87 | Cc1cc(N)c2ccccc2[n+]1CCCCCCCCCC[n+]1c(C)cc(N)c2ccccc21 [DEQUALINIUM CHLORIDE] | < 4.00 | – |
| 5.56 | 6.14 | CCCC(C(=O)OCCN(CC)CC)(c1ccccc1)c1ccccc1 [PROADIFEN HYDROCHLORIDE] | 4.24 | – |
| – | – | AURANOFIN | – | pIC50 (HepG2): 5.25; pIC50 (Plasmodium falciparum [2]): 6.50; pIC50 (Plasmodium falciparum [3]): 6.46; pIC50 (Plasmodium berghei; hepg2): 6.97 |
| 6.54 | < 4.30 | COc1ccc2nc([S@@+]([O-])Cc3ncc(C)c(OC)c3C)[nH]c2c1 [ESOMEPRAZOLE POTASSIUM] | < 5.00 | pIC50 (Plasmodium falciparum [3]; Plasmodium falciparum, 3D7): < 4.30 |
| 6.17 | < 4.30 | COc1ccc2[nH]c([S+]([O-])Cc3ncc(C)c(OC)c3C)nc2c1 (configuration not stated) [OMEPRAZOLE] | < 5.00 | pIC50 (Plasmodium falciparum [3]; Plasmodium falciparum, 3D7): < 4.30 |
| 6.65 | < 5.30 | COc1ccc2[nH]c([S+]([O-])Cc3ncc(C)c(OC)c3C)nc2n1 (configuration not stated) [TENATOPRAZOLE] | < 5.00 | pIC50 (Plasmodium falciparum [3]; Plasmodium falciparum, 3D7): < 5.30 |
| 5.87 | < 5.30 | O=C(c1ccc(F)cc1)C1CCN(CCn2c(=O)[nH]c3ccccc3c2=O)CC1 [KETANSERIN TARTRATE] | < 4.00 | – |
| 6.33 | 6.59 | Nc1nc(Nc2ccc(S(N)(=O)=O)cc2)nn1C(=S)Nc1c(F)cccc1F | < 4.30 | – |
| 5.13 | 6.10 | COc1cc(NC(C)CCCN)c2ncccc2c1 (configuration not stated) [PRIMAQUINE PHOSPHATE] | < 4.00 | – |
| 6.00 | < 5.30 | COc1c(C)c2c(c(O)c1C/C=C(\C)CCC(=O)O)C(=O)OC2 [MYCOPHENOLIC ACID] | < 4.00 | – |
| 7.60 | < 5.30 | CCCc1nc2c(C)cc(-c3nc4ccccc4n3C)cc2n1Cc1ccc(-c2ccccc2C(=O)O)cc1 | < 5.00 | pIC50 (Plasmodium falciparum [3]; Plasmodium falciparum, 3D7): < 5.30 |
| 5.98 | – | Cc1cc(C2CCCCC2)n(O)c(=O)c1 [CICLOPIROX OLAMINE] | < 4.00 | – |
| 5.18 | < 5.30 | CC(=O)[C@]1(O)Cc2c(O)c3c(c(O)c2[C@@H](O[C@H]2C[C@H](N)[C@H](O)[C@H](C)O2)C1)C(=O)c1ccccc1C3=O [IDARUBICIN] | 4.91 | pIC50 (Plasmodium falciparum [3]; Plasmodium falciparum, 3D7): < 5.30 |
| – | – | COc1ccc(CCN2CCC(Nc3nc4ccccc4n3Cc3ccc(F)cc3)CC2)cc1 [ASTEMIZOLE] | 4.92 | – |
| – | – | CC[C@@]1([C@@H]2O[C@@H]([C@H]3O[C@@](O)(CO)[C@H](C)C[C@@H]3C)C[C@@H]2C)CC[C@H]([C@]2(C)CC[C@]3(C[C@H](O)[C@@H](C)[C@@H]([C@@H](C)[C@@H](OC)[C@H](C)C(=O)O)O3)O2)O1 [MONENSIN SODIUM] | < 4.00 | – |
| 8.33 | – | CCc1nc(N)nc(N)c1-c1ccc(Cl)cc1 [PYRIMETHAMINE] | < 5.00 | – |
| 5.52 | 6.81 | COc1cccc2c1C(=O)c1c(O)c3c(c(O)c1C2=O)C[C@@](O)(C(C)=O)C[C@@H]3O[C@H]1C[C@H](N)[C@H](O)[C@H](C)O1 [DAUNORUBICIN] | 5.04 | pIC50 (Plasmodium falciparum [3]; Plasmodium falciparum, 3D7): 6.47 |
| 6.66 | – | CCN(CC)CCOc1ccc(C(=C(Cl)c2ccccc2)c2ccccc2)cc1 [CLOMIPHENE] | 4.96 | – |
| – | – | CO[C@H](C(=O)[C@@H](O)[C@@H](C)O)[C@@H]1Cc2cc3cc(O[C@H]4C[C@@H](O[C@H]5C[C@@H](O)[C@H](O)[C@@H](C)O5)[C@H](O)[C@@H](C)O4)c(C)c(O)c3c(O)c2C(=O)[C@H]1O[C@H]1C[C@@H](O[C@H]2C[C@@H](O[C@H]3C[C@](C)(O)[C@H](O)[C@@H](C)O3)[C@@H](O)[C@@H](C)O2)[C@H](O)[C@@H](C)O1 [PLICAMYCIN] | < 5.00 | – |

| Compound | pIC50 (Plasmodium berghei; [4]) | pIC50 (Plasmodium falciparum [2]; Plasmodium falciparum, Dd2) | pIC50 ([1]; HepG2 cells) | other results |
| --- | --- | --- | --- | --- |
| CC[C@H]1CN2CCc3cc(OC)c(OC)cc3[C@@H]2C[C@@H]1C[C@H]1NCCc2cc(OC)c(OC)cc21 [EMETINE HYDROCHLORIDE] | 7.10 | 7.74 | 5.00 | – |
| CC[C@@H]1C=CC=CC[C@H](C)[C@@H](O)[C@@H](C)C(=O)[C@H](C)[C@@H](O)[C@H](C)C(=O)[C@H](C)[C@@H](O)[C@H](C)C=CC(=O)O[C@H]2[C@@H](C)[C@@H](CC1)O[C@@]1(CC[C@@H](C)[C@@H](C[C@H](C)O)O1)[C@@H]2C [OLIGOMYCIN C] | 9.30 | 6.95 | 4.82 | – |
| CCCCCCCCCc1ccc(OCCOCCOCCOCCOCCOCCOCCOCCOCCO)cc1 [NONOXYNOL 9] | 5.64 | < 5.30 | 4.21 | – |
| CN1CCC[C@@H]1CCO[C@](C)(c1ccccc1)c1ccc(Cl)cc1 [CLEMASTINE FUMARATE] | 6.02 | 6.34 | – | pIC50 ([1]; hepg2): < 4.30; pIC50 (Plasmodium falciparum [3]; Plasmodium falciparum, 3D7): 6.18 |
| C[C@@H]1C[C@@H]([C@H](O)CC2CC(=O)NC(=O)C2)C(=O)[C@@H](C)C1 [CYCLOHEXIMIDE] | 7.33 | – | < 4.00 | – |
| CCCCCC[C@H]1C(=O)O[C@H](C)[C@H](NC(=O)c2cccc(NC=O)c2O)C(=O)O[C@@H](C)[C@@H]1OC(=O)CC(C)C [ANTIMYCIN A] | 8.64 | – | < 4.00 | – |
| CC[C@@H](C(=O)[C@@H](C)[C@@H](O)[C@H](C)CCc1ccc(C)c(O)c1C(=O)O)[C@H]1O[C@](CC)([C@H]2CC[C@](O)(CC)[C@H](C)O2)C[C@@H]1C [LASALOCID A SODIUM] | 7.96 | – | < 4.00 | – |
| CC[C@@H](C(=O)[C@@H](C)[C@@H](O)[C@H](C)[C@@H]1O[C@@H]([C@@H](CC)C(=O)O)CC[C@@H]1C)[C@H]1O[C@]2(C=C[C@@H](O)[C@]3(CC[C@@](C)([C@H]4CC[C@](O)(CC)[C@H](C)O4)O3)O2)[C@H](C)C[C@@H]1C [SALINOMYCIN SODIUM] | 8.70 | – | 4.24 | – |
| CC[C@@]1([C@H]2O[C@H]([C@H]3O[C@@](O)(CO)[C@H](C)C[C@@H]3C)C[C@H]2C)CC[C@H]([C@@]2(C)CC[C@]3(C[C@H](O)[C@@H](C)[C@@H]([C@H](C)[C@H](OC)[C@@H](C)C(=O)O)O3)O2)O1 [MONENSIN SODIUM] | 9.22 | – | – | – |
